From patent publication US12226412B2, “Heteroaryl-ketone fused azadecalin glucocorticoid receptor modulators” (Corcept Therapeutics, Inc., priority 2012, dated 2025) come the findings set out here.

Where two headings read alike, the source gives them in different places.

Assay [1] concerns induction of TAT by dexamethasone in HepG2 cells. Briefly: HepG2 tyrosine aminotransferase (TAT) assay. The class given is cell-based, human.
Another assay concerns the target T1, human recombinant GR (Homo sapiens, UniProt P04150).
T1 construct: purchased PanVera P2812
T1 sequence (P04150 1-777): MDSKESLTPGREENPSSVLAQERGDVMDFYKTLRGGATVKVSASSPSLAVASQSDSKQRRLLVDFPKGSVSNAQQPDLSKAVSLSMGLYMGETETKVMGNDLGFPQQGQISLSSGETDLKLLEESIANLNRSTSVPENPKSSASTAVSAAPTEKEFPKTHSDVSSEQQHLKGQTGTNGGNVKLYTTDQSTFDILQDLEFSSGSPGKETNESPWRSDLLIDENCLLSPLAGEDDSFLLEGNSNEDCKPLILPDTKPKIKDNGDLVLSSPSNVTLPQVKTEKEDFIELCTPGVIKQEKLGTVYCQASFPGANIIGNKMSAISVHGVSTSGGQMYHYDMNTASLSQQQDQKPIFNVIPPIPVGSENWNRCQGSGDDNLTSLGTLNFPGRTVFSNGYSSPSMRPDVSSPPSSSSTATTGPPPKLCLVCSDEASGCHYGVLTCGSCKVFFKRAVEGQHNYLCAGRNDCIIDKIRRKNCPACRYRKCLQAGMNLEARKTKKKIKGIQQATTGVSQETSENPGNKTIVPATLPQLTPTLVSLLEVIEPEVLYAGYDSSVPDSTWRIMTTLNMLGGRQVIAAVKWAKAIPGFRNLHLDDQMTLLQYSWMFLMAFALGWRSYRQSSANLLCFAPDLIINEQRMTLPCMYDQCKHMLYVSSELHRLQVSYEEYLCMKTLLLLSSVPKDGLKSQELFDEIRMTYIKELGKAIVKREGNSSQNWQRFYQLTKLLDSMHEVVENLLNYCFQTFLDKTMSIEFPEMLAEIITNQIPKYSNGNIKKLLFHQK
Briefly: Human glucocorticoid receptor (GR) fluorescence polarisation (FP) binding assay. The procedure, abridged: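 Competition fluorescence polarisation: 0.5 nM GS Red labelled glucocorticoid and 1 nM recombinant human GR with 8-point half-log compound series, 1% DMSO, 4 h room temperature, potassium phosphate pH 7.4 buffer with molybdate, EDTA, DTT. Affinity derived from the drop in polarisation, normalised to blank wells.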
On the technique in general: Fluorescence polarisation rises when a labelled molecule tumbles more slowly, as on binding a larger partner.

[2] abbreviates: HepG2 cells, challenge of 100 nM dexamethasone, Ki from IC50 by Cheng and Prusoff equation.
The mark [3] stands for this setting: human recombinant GR, fluorescence polarisation binding assay, read-out: GR binding.

`Cc1ccnc(C(=O)[C@]23Cc4cnn(-c5ccc(F)cc5)c4C=C2CCN(S(=O)(=O)c2cc(C(F)(F)F)ccn2)C3)c1` [Example 11BC, (R)-(1-(4-fluorophenyl)-6-((4-(trifluoromethyl)pyridin-2-yl)sulfonyl)-4,4a,5,6,7,8-hexahydro-1H-pyrazolo[3,4-g]isoquinolin-4a-yl)(4-methylpyridin-2-yl)methanone]: the Ki was < 20 nM in assay [1] (setting [2]) and < 0.5 nM at human recombinant GR (setting [3]).

For `Cc1ccnc(C(=O)[C@]23Cc4cnn(-c5ccc(F)cc5)c4C=C2CCN(S(=O)(=O)c2cccc(C#N)c2)C3)c1` [Example 11S, (R)-3-((1-(4-fluorophenyl)-4a-(4-methylpicolinoyl)-4a,5,7,8-tetrahydro-1H-pyrazolo[3,4-g]isoquinolin-6 (4H)-yl)sulfonyl)benzonitrile], the Ki in assay [1] (setting [2]) was < 20 nM; on human recombinant GR (setting [3]) it was < 0.5 nM.

On to `CCn1cnc(S(=O)(=O)N2CCC3=Cc4c(cnn4-c4ccc(F)cc4)C[C@]3(C(=O)c3cc(C(F)(F)F)ccn3)C2)c1` [Example 11BY, (R)-(6-((1-ethyl-1H-imidazol-4-yl)sulfonyl)-1-(4-fluorophenyl)-4,4a,5,6,7,8-hexahydro-1H-pyrazolo[3,4-g]isoquinolin-4a-yl)(4-(trifluoromethyl)pyridin-2-yl)methanone], for which the Ki in assay [1] (setting [2]) was < 20 nM; on human recombinant GR (setting [3]) it was < 0.5 nM.

`Cn1ncc(S(=O)(=O)N2CCC3=Cc4c(cnn4-c4ccc(F)cc4)C[C@]3(C(=O)c3cc(C(F)(F)F)ccn3)C2)n1` [Example 11CE, (R)-(1-(4-fluorophenyl)-6-((2-methyl-2H-1,2,3-triazol-4-yl)sulfonyl)-4,4a,5,6,7,8-hexahydro-1H-pyrazolo[3,4-g]isoquinolin-4a-yl)(4-(trifluoromethyl)pyridin-2-yl)methanone]: the Ki in assay [1] (setting [2]) was < 20 nM; on human recombinant GR (setting [3]), < 0.5 nM.

Regarding `O=C(c1ccccn1)[C@]12Cc3cnn(-c4ccc(F)cc4)c3C=C1CCN(S(=O)(=O)c1ccc(OC(F)F)cc1)C2` [Example 11H, (R)-(6-((4-(difluoromethoxy)phenyl)sulfonyl)-1-(4-fluorophenyl)-4,4a,5,6,7,8-hexahydro-1H-pyrazolo[3,4-g]isoquinolin-4a-yl)(pyridin-2-yl)methanone], the Ki was < 20 nM in assay [1] (setting [2]) and < 0.5 nM at human recombinant GR (setting [3]).

In the case of `Cn1cc(S(=O)(=O)N2CCC3=Cc4c(cnn4-c4ccc(F)cc4)C[C@]3(C(=O)c3cc(C(F)(F)F)ccn3)C2)cn1` [Example 18, (R)-(1-(4-fluorophenyl)-6-((1-methyl-1H-pyrazol-4-yl)sulfonyl)-4,4a,5,6,7,8-hexahydro-1H-pyrazolo[3,4-g]isoquinolin-4a-yl)(4-(trifluoromethyl)pyridin-2-yl)methanone], the Ki was < 20 nM in assay [1] (setting [2]) and < 0.5 nM on human recombinant GR (setting [3]).

As to `Cn1nncc1S(=O)(=O)N1CCC2=Cc3c(cnn3-c3ccc(F)cc3)C[C@]2(C(=O)c2cc(C(F)(F)F)ccn2)C1` [Example 11CF, (R)-(1-(4-fluorophenyl)-6-((1-methyl-1H-1,2,3-triazol-5-yl)sulfonyl)-4,4a,5,6,7,8-hexahydro-1H-pyrazolo[3,4-g]isoquinolin-4a-yl)(4-(trifluoromethyl)pyridin-2-yl)methanone], the Ki in assay [1] (setting [2]) is 20 to 100 nM; on human recombinant GR (setting [3]), > 1 nM.

Consider `O=C(c1ccccn1)[C@]12Cc3cnn(-c4ccc(F)cc4)c3C=C1CCN(S(=O)(=O)c1ccc(N3CCOCC3)nc1)C2` [Example 3, (R)-(1-(4-fluorophenyl)-6-((6-morpholinopyridin-3-yl)sulfonyl)-4,4a,5,6,7,8-hexahydro-1H-pyrazolo[3,4-g]isoquinolin-4a-yl)(pyridin-2-yl)methanone], for which the Ki in assay [1] (setting [2]) is 20 to 100 nM; at human recombinant GR (setting [3]), < 0.5 nM.

Consider `O=C(c1ccccn1)[C@]12Cc3cnn(-c4ccc(F)cc4)c3C=C1CCN(S(=O)(=O)c1ccc(Cl)c(Cl)c1)C2` [Example 11AF, (R)-(6-((3,4-dichlorophenyl)sulfonyl)-1-(4-fluorophenyl)-4,4a,5,6,7,8-hexahydro-1H-pyrazolo[3,4-g]isoquinolin-4a-yl)(pyridin-2-yl)methanone], for which the results for the Ki (in assay [1]; at human recombinant GR) were < 20 nM and < 0.5 nM, respectively.

`O=C(c1cscn1)[C@]12Cc3cnn(-c4ccc(F)cc4)c3C=C1CCN(S(=O)(=O)c1ccc(C(F)(F)F)cc1)C2` [Example 11, (R)-(1-(4-fluorophenyl)-6-((4-(trifluoromethyl)phenyl)sulfonyl)-4,4a,5,6,7,8-hexahydro-1H-pyrazolo[3,4-g]isoquinolin-4a-yl)(thiazol-4-yl)methanone]: the Ki in assay [1] (setting [2]) is 20 to 100 nM; at human recombinant GR, < 0.5 nM.

With `CCc1ccc(S(=O)(=O)N2CCC3=Cc4c(cnn4-c4ccc(F)cc4)C[C@]3(C(=O)c3ccccn3)C2)cc1` [Example 2D, (R)-(6-((4-ethylphenyl)sulfonyl)-1-(4-fluorophenyl)-4,4a,5,6,7,8-hexahydro-1H-pyrazolo[3,4-g]isoquinolin-4a-yl)(pyridin-2-yl)methanone], the values for the Ki (in assay [1] (setting [2]); at human recombinant GR (setting [3])) were < 20 nM and < 0.5 nM, respectively.

Take `Cc1cnc(C(=O)[C@]23Cc4cnn(-c5ccc(F)cc5)c4C=C2CCN(S(=O)(=O)c2ccc(Cl)c(F)c2)C3)s1` [Example 12R, (R)-(6-((4-chloro-3-fluorophenyl)sulfonyl)-1-(4-fluorophenyl)-4,4a,5,6,7,8-hexahydro-1H-pyrazolo[3,4-g]isoquinolin-4a-yl)(5-methylthiazol-2-yl)methanone]: the Ki in assay [1] (setting [2]) is < 20 nM; on human recombinant GR (setting [3]), 0.5 to 1 nM.

For `Cc1ccccc1S(=O)(=O)N1CCC2=Cc3c(cnn3-c3ccc(F)cc3)C[C@]2(C(=O)c2ccccn2)C1` [Example 2C, (R)-(1-(4-fluorophenyl)-6-(o-tolylsulfonyl)-4,4a,5,6,7,8-hexahydro-1H-pyrazolo [3,4-g]isoquinolin-4a-yl)(pyridin-2-yl)methanone], the results for the Ki (in assay [1] (setting [2]); at human recombinant GR) were < 20 nM and < 0.5 nM, respectively.

Turning to `CCCn1ncc(S(=O)(=O)N2CCC3=Cc4c(cnn4-c4ccc(F)cc4)C[C@]3(C(=O)c3ccccn3)C2)n1` [Example 11CN, (R)-(1-(4-fluorophenyl)-6-((2-propyl-2H-1,2,3-triazol-4-yl)sulfonyl)-4,4a,5,6,7,8-hexahydro-1H-pyrazolo[3,4-g]isoquinolin-4a-yl)(pyridin-2-yl)methanone], the Ki is < 20 nM in assay [1] (setting [2]) and < 0.5 nM at human recombinant GR (setting [3]).

As to `CCCn1cc(S(=O)(=O)N2CCC3=Cc4c(cnn4-c4ccc(F)cc4)C[C@]3(C(=O)c3cc(C(F)(F)F)ccn3)C2)cn1` [Example 11CX, (R)-(1-(4-fluorophenyl)-6-((1-propyl-1H-pyrazol-4-yl)sulfonyl)-4,4a,5,6,7,8-hexahydro-1H-pyrazolo[3,4-g]isoquinolin-4a-yl)(4-(trifluoromethyl)pyridin-2-yl)methanone], the Ki was < 20 nM in assay [1] (setting [2]) and < 0.5 nM on human recombinant GR (setting [3]).

Turning to `O=C(c1ccccn1)[C@]12Cc3cnn(-c4ccc(F)cc4)c3C=C1CCN(S(=O)(=O)c1ccc(C(F)(F)F)cc1)C2` [Example 1, (R)-(1-(4-fluorophenyl)-6-((4-(trifluoromethyl)phenyl)sulfonyl)-4,4a,5,6,7,8-hexahydro-1H-pyrazolo[3,4-g]isoquinolin-4a-yl)(pyridin-2-yl)methanone], the values for the Ki (in assay [1]; on human recombinant GR) were < 20 nM and < 0.5 nM, respectively.

As for `O=C(c1ccccn1)[C@]12Cc3cnn(-c4ccc(F)cc4)c3C=C1CCN(S(=O)(=O)c1ccc(F)c(Cl)c1)C2` [Example 11R, (R)-(6-((3-chloro-4-fluorophenyl)sulfonyl)-1-(4-fluorophenyl)-4,4a,5,6,7,8-hexahydro-1H-pyrazolo[3,4-g]isoquinolin-4a-yl)(pyridin-2-yl)methanone], the Ki in assay [1] (setting [2]) was < 20 nM; at human recombinant GR (setting [3]), < 0.5 nM.

Turning to `COc1ccnc(C(=O)[C@]23Cc4cnn(-c5ccc(F)cc5)c4C=C2CCN(S(=O)(=O)c2cc(F)c(F)c(F)c2)C3)c1` [Example 1M, (R)-(1-(4-fluorophenyl)-6-((3,4,5-trifluorophenyl)sulfonyl)-4,4a,5,6,7,8-hexahydro-1H-pyrazolo[3,4-g]isoquinolin-4a-yl)(4-methoxypyridin-2-yl)methanone], the Ki in assay [1] (setting [2]) was < 20 nM; on human recombinant GR (setting [3]), < 0.5 nM.

As to `Cc1ccc(S(=O)(=O)N2CCC3=Cc4c(cnn4-c4ccc(F)cc4)C[C@]3(C(=O)c3ccccn3)C2)cc1Cl` [Example 11BG, (R)-(6-((3-chloro-4-methylphenyl)sulfonyl)-1-(4-fluorophenyl)-4,4a,5,6,7,8-hexahydro-1H-pyrazolo[3,4-g]isoquinolin-4a-yl)(pyridin-2-yl)methanone], the Ki was < 20 nM in assay [1] (setting [2]) and < 0.5 nM on human recombinant GR (setting [3]).
